Measurements reported in PubChem BioAssay AID192 (DTP/NCI, 2004).
“And” between values parts separate entries of the source, which are not always exact repeats. Equal values may be shown once. Toxic doses and inconclusive results are not listed.

Test system: BDF1 mice, B16 melanoma ip, median survival T/C
Test: NCI In Vivo Anticancer Drug Screen. Data for tumor model B16 Melanoma (intraperitoneal) in B6D2F1 (BDF1) mice
Conditions: endpoint: median survival time, higher = longer survival
Description: The antitumor activity of compounds was measured in mice bearing transplantable tumors. Survival or tumor size were measured and the results are expressed as the measurement made in the treated group (T) divided by the measurement made in the vehicle treated control group (C). The tumor model used in this assay is B16 Melanoma (intraperitoneal) in B6D2F1 (BDF1) mice

[1] = dose: 100.0 mg/kg/injection, schedule: Q01DX009 (ip), vehicle: Klucel (hydroxypropylcellulose) (HPC)
[2] = dose: 200.0 mg/kg/injection, schedule: Q01DX009 (ip), vehicle: Klucel (hydroxypropylcellulose) (HPC)
[3] = dose: 400.0 mg/kg/injection, schedule: Q01DX009 (ip), vehicle: Klucel (hydroxypropylcellulose) (HPC)
[4] = dose: 100.0 mg/kg/injection, schedule: Q01DX009 (ip), vehicle: saline with Tween-80
[5] = dose: 200.0 mg/kg/injection, schedule: Q01DX009 (ip), vehicle: saline with Tween-80
[6] = dose: 400.0 mg/kg/injection, schedule: Q01DX009 (ip), vehicle: saline with Tween-80
[7] = dose: 6.25 mg/kg/injection, schedule: Q01DX009 (ip), vehicle: saline with Tween-80
[8] = dose: 12.5 mg/kg/injection, schedule: Q01DX009 (ip), vehicle: saline with Tween-80
[9] = dose: 25.0 mg/kg/injection, schedule: Q01DX009 (ip), vehicle: saline with Tween-80
[10] = dose: 3.12 mg/kg/injection, schedule: Q01DX009 (ip), vehicle: saline with Tween-80
[11] = dose: 6.25 mg/kg/injection, schedule: Q01DX009 (ip), vehicle: saline
[12] = dose: 12.5 mg/kg/injection, schedule: Q01DX009 (ip), vehicle: saline
[13] = dose: 1.5 mg/kg/injection, schedule: Q01DX009 (ip), vehicle: saline with Tween-80
[14] = dose: 3.0 mg/kg/injection, schedule: Q01DX009 (ip), vehicle: saline with Tween-80
[15] = dose: 6.0 mg/kg/injection, schedule: Q01DX009 (ip), vehicle: saline with Tween-80

## O=S(=O)(O)c1ccc(Nc2ccccc2)cc1
[1]
  T/C: 107 % of control and 97 % of control
[2]
  T/C: 114 % of control and 88 % of control
[3]
  T/C: 107 % of control and 100 % of control

## O=C(O)C1CCCCC1C(=O)Nc1ccccc1C(F)(F)F (configuration not stated)
[4]
  T/C: 90 % of control
[5]
  T/C: 90 % of control
[6]
  T/C: 90 % of control

## O=[N+]([O-])c1ccc(/C=C/c2ccc([N+](=O)[O-])cc2S(=O)(=O)O)c(S(=O)(=O)O)c1
[4]
  T/C: 104 % of control
[5]
  T/C: 95 % of control
[6]
  T/C: 109 % of control

## CC(C)Cc1ccc(OC(=O)Nc2ccc(Cl)cc2)cc1
[7]
  T/C: 97 % of control
[8]
  T/C: 100 % of control
[9]
  T/C: 91 % of control and 98 % of control

## COC(=O)C(F)C(Br)C(=O)OC (configuration not stated)
[10]
  T/C: 105 % of control
[7]
  T/C: 99 % of control
[8]
  T/C: 94 % of control
[9]
  T/C: 99 % of control
dose: 50.0 mg/kg/injection, schedule: Q01DX009 (ip), vehicle: saline with Tween-80
  T/C: 98 % of control

## Cc1ccc([NH-])c([NH-])c1.[Cl][Pt+2][Cl]
dose: 1.25 mg/kg/injection, schedule: Q01DX009 (ip), vehicle: saline with Tween-80
  T/C: 120 % of control
dose: 5.0 mg/kg/injection, schedule: Q01DX009 (ip), vehicle: saline with Tween-80
  T/C: 161 % of control

## O=C(Cl)c1ccc(OC(Cl)(Cl)Cl)cc1
[1]
  T/C: 100 % of control
[2]
  T/C: 93 % of control
[3]
  T/C: 86 % of control

## c1ccc(C[n+]2ccc3ccccc3c2)cc1
[11]
  T/C: 105 % of control and 113 % of control
dose: 6.25 mg/kg/injection, schedule: Q04DX003 (ip), vehicle: saline with Tween-80
  T/C: 95 % of control
[12]
  T/C: 117 % of control
dose: 12.5 mg/kg/injection, schedule: Q04DX003 (ip), vehicle: saline with Tween-80
  T/C: 107 % of control
dose: 25.0 mg/kg/injection, schedule: Q01DX009 (ip), vehicle: saline
  T/C: 108 % of control and 110 % of control
dose: 25.0 mg/kg/injection, schedule: Q04DX003 (ip), vehicle: saline with Tween-80
  T/C: 100 % of control

## COc1cccc(NC(=O)CCC(=O)O)c1
dose: 1.56 mg/kg/injection, schedule: Q01DX009 (ip), vehicle: Klucel (hydroxypropylcellulose) (HPC)
  T/C: 89 % of control
dose: 3.12 mg/kg/injection, schedule: Q01DX009 (ip), vehicle: Klucel (hydroxypropylcellulose) (HPC)
  T/C: 102 % of control
dose: 6.25 mg/kg/injection, schedule: Q01DX009 (ip), vehicle: Klucel (hydroxypropylcellulose) (HPC)
  T/C: 92 % of control
dose: 12.5 mg/kg/injection, schedule: Q01DX009 (ip), vehicle: Klucel (hydroxypropylcellulose) (HPC)
  T/C: 94 % of control

## Cc1nc2ccccc2nc1CI
dose: 0.75 mg/kg/injection, schedule: Q01DX009 (ip), vehicle: saline with Tween-80
  T/C: 106 % of control
[13]
  T/C: 93 % of control
[14]
  T/C: 106 % of control
[15]
  T/C: 93 % of control
[7]
  T/C: 91 % of control

## COc1ccc2c(c1)N(CCCN(C)C)c1ccccc1S2
dose: 2.34 mg/kg/injection, schedule: Q01DX009 (ip), vehicle: saline
  T/C: 102 % of control
dose: 4.68 mg/kg/injection, schedule: Q01DX009 (ip), vehicle: saline
  T/C: 110 % of control
dose: 18.75 mg/kg/injection, schedule: Q01DX009 (ip), vehicle: saline
  T/C: 102 % of control
dose: 37.5 mg/kg/injection, schedule: Q01DX009 (ip), vehicle: saline
  T/C: 110 % of control

## CN=C(N)NC
dose: 50.0 mg/kg/injection, schedule: Q01DX009 (ip), vehicle: saline
  T/C: 95 % of control
dose: 100.0 mg/kg/injection, schedule: Q01DX009 (ip), vehicle: saline
  T/C: 98 % of control
dose: 200.0 mg/kg/injection, schedule: Q01DX009 (ip), vehicle: saline
  T/C: 104 % of control

## CC(=O)OC1COC(NC(=O)N(CCCl)N=O)C(OC(C)=O)C1OC(C)=O (configuration not stated)
dose: 0.18 mg/kg/injection, schedule: Q01DX009 (ip), vehicle: saline with Tween-80
  T/C: 106 % of control
dose: 0.2 mg/kg/injection, schedule: Q01DX009 (ip), vehicle: saline with Tween-80
  T/C: 155 % of control
dose: 0.37 mg/kg/injection, schedule: Q01DX009 (ip), vehicle: saline with Tween-80
  T/C: 118 % of control
dose: 0.39 mg/kg/injection, schedule: Q01DX009 (ip), vehicle: saline with Tween-80
  T/C: 114 % of control
[13]
  T/C: 168 % of control
dose: 1.56 mg/kg/injection, schedule: Q01DX009 (ip), vehicle: saline with Tween-80
  T/C: 170 % of control
[14]
  T/C: 173 % of control
[10]
  T/C: 209 % of control
[15]
  T/C: 162 % of control
[7]
  T/C: 190 % of control

## CCOC(=O)C(NC(=O)C(Cc1ccc(N(CCCl)CCCl)cc1)NC(C)=O)C(C)C (configuration not stated)
dose: 1.56 mg/kg/injection, schedule: Q01DX009 (ip), vehicle: saline
  T/C: 99 % of control
dose: 3.13 mg/kg/injection, schedule: Q01DX009 (ip), vehicle: saline
  T/C: 98 % of control
[11]
  T/C: 102 % of control
dose: 12.5 mg/kg/injection, schedule: Q04DX003 (ip), vehicle: saline
  T/C: 105 % of control
dose: 25.0 mg/kg/injection, schedule: Q04DX003 (ip), vehicle: saline
  T/C: 97 % of control
dose: 50.0 mg/kg/injection, schedule: Q04DX003 (ip), vehicle: saline
  T/C: 102 % of control

## O=C(/C=C(\C(=O)c1ccccc1)c1ccccc1)c1ccccc1
dose: 100.0 mg/kg/injection, schedule: Q04DX003 (ip), vehicle: Klucel (hydroxypropylcellulose) (HPC)
  T/C: 100 % of control
dose: 200.0 mg/kg/injection, schedule: Q04DX003 (ip), vehicle: Klucel (hydroxypropylcellulose) (HPC)
  T/C: 100 % of control
dose: 400.0 mg/kg/injection, schedule: Q04DX003 (ip), vehicle: Klucel (hydroxypropylcellulose) (HPC)
  T/C: 103 % of control

## O=C(O)C1(C(=O)O)CCCCC1.[NH2-].[NH2-].[Pt+2]
[11]
  T/C: 159 % of control
[12]
  T/C: 188 % of control

## Cc1cc(/C=C\c2ccc3ccccc3[n+]2C)c(O)c2ncccc12
[7]
  T/C: 106 % of control
[8]
  T/C: 101 % of control
[9]
  T/C: 101 % of control

## Cc1cccc(C(=O)CC(O)(C(F)(F)F)C(F)(F)F)n1
dose: 100.0 mg/kg/injection, schedule: Q04DX003 (ip), vehicle: saline with Tween-80
  T/C: 110 % of control
dose: 200.0 mg/kg/injection, schedule: Q04DX003 (ip), vehicle: saline with Tween-80
  T/C: 100 % of control
dose: 400.0 mg/kg/injection, schedule: Q04DX003 (ip), vehicle: saline with Tween-80
  T/C: 100 % of control

## CC[CH2][Pb]([Cl])([CH2]CC)[CH2]CC
dose: 0.09 mg/kg/injection, schedule: Q01DX009 (ip), vehicle: DMSO
  T/C: 100 % of control
dose: 0.18 mg/kg/injection, schedule: Q01DX009 (ip), vehicle: DMSO
  T/C: 92 % of control
dose: 0.37 mg/kg/injection, schedule: Q01DX009 (ip), vehicle: DMSO
  T/C: 95 % of control
dose: 0.75 mg/kg/injection, schedule: Q01DX009 (ip), vehicle: DMSO
  T/C: 95 % of control
dose: 1.5 mg/kg/injection, schedule: Q01DX009 (ip), vehicle: DMSO
  T/C: 92 % of control

## O=C(Nc1ccccc1)N(Cc1ccccc1)c1ccccc1
dose: 50.0 mg/kg/injection, schedule: Q04DX009 (ip), vehicle: Klucel (hydroxypropylcellulose) (HPC)
  T/C: 104 % of control
dose: 100.0 mg/kg/injection, schedule: Q04DX009 (ip), vehicle: Klucel (hydroxypropylcellulose) (HPC)
  T/C: 104 % of control
dose: 200.0 mg/kg/injection, schedule: Q04DX003 (ip), vehicle: carboxymethylcellulose (CMC)
  T/C: 105 % of control
dose: 200.0 mg/kg/injection, schedule: Q04DX009 (ip), vehicle: Klucel (hydroxypropylcellulose) (HPC)
  T/C: 93 % of control

## COc1cc(C)c(C2NC(=O)c3ccccc3N2)cc1C (configuration not stated)
dose: 25.0 mg/kg/injection, schedule: Q01DX009 (ip), vehicle: Klucel (hydroxypropylcellulose) (HPC)
  T/C: 103 % of control
dose: 50.0 mg/kg/injection, schedule: Q01DX009 (ip), vehicle: Klucel (hydroxypropylcellulose) (HPC)
  T/C: 113 % of control
[1]
  T/C: 115 % of control
[2]
  T/C: 121 % of control

## NC(c1ccccc1)C(N)c1ccccc1 (configuration not stated)
dose: 25.0 mg/kg/injection, schedule: Q04DX003 (ip), vehicle: other
  T/C: 97 % of control
dose: 50.0 mg/kg/injection, schedule: Q04DX003 (ip), vehicle: other
  T/C: 97 % of control
dose: 100.0 mg/kg/injection, schedule: Q04DX003 (ip), vehicle: other
  T/C: 86 % of control

## OCc1ccccc1
[4]
  T/C: 94 % of control
[5]
  T/C: 100 % of control
[6]
  T/C: 108 % of control

## C(=N\Nc1nn[nH]n1)/c1ccncc1
[1]
  T/C: 103 % of control
[2]
  T/C: 104 % of control
